From PubChem BioAssay (NCI)
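All cell lines were grown in 96-well plates and treated with compound for 48 hours. At the GI50, growth is halved. TGI: concentration producing complete growth inhibition.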

Experiments:
Assay in all cases: NCI tumour cell line growth inhibition, 48 h
[1] = system: NCI-H522 lung
[2] = system: SF-268 CNS
[3] = system: OVCAR-8 ovarian
[4] = system: SK-MEL-5 melanoma
[5] = system: HT29 colon
[6] = system: KM12 colon
[7] = system: KM20L2 colon
[8] = system: LOX IMVI melanoma
[9] = system: MALME-3M melanoma
[10] = system: EKVX NSCLC

SMILES	TGI [1] [µM]	TGI [2] [µM]	TGI [3] [µM]	TGI [4] [µM]	TGI [5] [µM]	TGI [6] [µM]	TGI [7] [µM]	TGI [8] [µM]	GI50 [9] [µM]	TGI [9] [µM]	GI50 [1] [µM]	GI50 [2] [µM]	GI50 [10] [µM]	TGI [10] [µM]	GI50 [3] [µM]	GI50 [4] [µM]	GI50 [5] [µM]	GI50 [6] [µM]	GI50 [8] [µM]
COP1(=O)CC2C(Cl)(Cl)C2(C)C1 (stereo not drawn)	> 100	> 100	> 100	> 100	> 100	> 100	> 100	> 100	–	–	–	–	–	–	–	–	–	–	–
COc1cc2nc(-c3ccc(C(F)(F)F)cc3)cc(OCCCN3CCOCC3)c2cc1OC	15.3	27.9	28.8	0.997	15.7	22	–	0.324	1.38	3.77	2.52	5.7	1.61	19.6	1.95	0.288	0.54	3.42	0.141
Cc1cc2c(CC(=O)O)[nH]nc2c(C(=O)O)c1C	–	> 100	> 100	–	> 100	–	> 100	> 100	–	> 100	–	–	–	> 100	–	–	–	–	–
CCCCNc1nc(NC(C)(C)C)nc(NC(C)(C)C)n1	> 100	> 100	> 100	17.7	> 100	> 100	–	23.6	49.4	> 100	6.32	48.4	3.12	> 100	4.74	3.49	2.37	4.87	3.39
COc1cc(-c2cnn(C)c2)ccc1Nc1ncc2ccnc(N[C@@H](C)C(C)(C)C)c2n1	> 100	> 100	> 100	> 100	> 100	> 100	–	> 100	> 66	> 100	> 100	> 41.5	> 100	> 100	> 49.6	> 79	> 50.6	1.51	5.43
CN1CCN(Cc2ccc(NC(=O)c3cncc(C#Cc4cnc(N)c5ccc(F)cc45)c3)cc2C(F)(F)F)CC1	6.53	8.92	7.09	6.68	4.14	4.63	–	4.27	1.08	3.93	1.86	1.79	3.84	7.89	2.31	2.26	0.956	0.0282	1.01
Cc1cc2nc3c(=O)n(C)c(=O)nc-3n(-c3ccc(Cl)cc3)c2cc1C	–	36.7	43.7	4.14	16.1	> 100	26.1	–	–	22.3	–	–	–	43.9	–	–	–	–	–
c1ccc2c(c1)[I+]c1ccccc1-2	> 50	> 50	> 50	> 50	> 50	> 50	–	> 50	> 50	> 50	> 50	> 50	19.4	> 50	> 50	24.3	38.6	> 50	> 50
